Read-outs that look alike come from different tables or passages of the source.
Key:
Format in all cases: cell-based
SR = test: In vitro anti-cancer activity, leukemia, cell line SR; conditions: Homo sapiens
Excerpt: (§1) In particular, these compounds are related to taxol, the recently FDA approved anticancer drug, and its various analogues having an additional hydroxyl group at C-14 position of the taxane skeleton. […] Selectivity and sensitivity were particularly good at 0.01 to 1 μm concentrations at G150 level (concentrations of the agent in the assay that produced 50 0 growth inhibition).
(§2) IN VITRO ANTI-CANCER ACTIVITY DATA OF 7,10-DIMETHYLACETONIDO 14-HYDROXY TAXOL (Compound 23) ON LEUKEMIA, OVARIAN AND BREAST CANCER CELL LINES IN COMPARISON TO TAXOL
(§3) All the values are given in μm concentrations:
(§4) The notations GI50, TGI refer to the concentrations of the agent in the assay that produced 50% growth inhibition, total growth inhibition respectively.

BT 549 = test: In vitro anti-cancer activity, breast cancer, cell line BT 549; conditions: Homo sapiens
Excerpt: as §1, §2, §3, §4

OVCAR5 = test: In vitro anti-cancer activity, ovarian cancer, cell line OVCAR5; conditions: Homo sapiens, OVCAR-5
Excerpt: as §1, §2, §3, §4

HL60 = test: In vitro anti-cancer activity, leukemia, cell line HL60; conditions: Homo sapiens, HL-60
Excerpt: as §1, §2, §3, §4

MDA-MB 435 = test: In vitro anti-cancer activity, breast cancer, cell line MDA-MB 435; conditions: Homo sapiens
Excerpt: as §1, §2, §3, §4

MCF7 = test: In vitro anti-cancer activity, breast cancer, cell line MCF7; conditions: Homo sapiens
Excerpt: as §1, §2, §3, §4

HCT 15 = test: In vitro anti-cancer activity, colon cancer, cell line HCT 15; conditions: Homo sapiens
SW 620 = test: In vitro anti-cancer activity, colon cancer, cell line SW 620; conditions: Homo sapiens
Excerpt: as §1, §2, §3, §4

MDA-N = test: In vitro anti-cancer activity, breast cancer, cell line MDA-N; conditions: Homo sapiens
Excerpt: as §1, §2, §3, §4

HT-29 = test: In vitro anti-cancer activity, colon cancer, cell line HT-29; conditions: Homo sapiens
MDA-MB 231 = test: In vitro anti-cancer activity, breast cancer, cell line MDA-MB 231; conditions: Homo sapiens
Excerpt: as §1, §2, §3, §4

KM12 = test: In vitro anti-cancer activity, colon cancer, cell line KM12; conditions: Homo sapiens
HCT 116 = test: In vitro anti-cancer activity, colon cancer, cell line HCT 116; conditions: Homo sapiens
K-562 = test: In vitro anti-cancer activity, leukemia, cell line K-562; conditions: Homo sapiens, K562
Excerpt: as §1, §2, §3, §4

IGR-OV1 = test: In vitro anti-cancer activity, ovarian cancer, cell line IGR-OV1; conditions: Homo sapiens, IGROV-1
Excerpt: as §1, §2, §3, §4

OVCAR4 = test: In vitro anti-cancer activity, ovarian cancer, cell line OVCAR4; conditions: Homo sapiens, OVCAR-4
Excerpt: as §1, §2, §3, §4

H5578T = test: In vitro anti-cancer activity, breast cancer, cell line H5578T
Excerpt: as §1, §2, §3, §4

Molt-4 = test: In vitro anti-cancer activity, leukemia, cell line Molt-4; conditions: Homo sapiens
Excerpt: as §1, §2, §3, §4

RPMI-8226 = test: In vitro anti-cancer activity, leukemia, cell line RPMI-8226; conditions: Homo sapiens
Excerpt: as §1, §2, §3, §4

T47D = test: In vitro anti-cancer activity, breast cancer, cell line T47D; conditions: Homo sapiens
Excerpt: as §1, §2, §3, §4

OVCAR3 = test: In vitro anti-cancer activity, ovarian cancer, cell line OVCAR3; conditions: Homo sapiens, OVCAR-3
Excerpt: as §1, §2, §3, §4

[1] = test system: three ovarian cancer cell lines; test: Activity on three ovarian cancer cell lines (National Cancer Institute protocols)
Excerpt: as §1

[2] = test system: leukemia, colon cancer and ovarian cancer cell lines; test: Selectivity and sensitivity (National Cancer Institute protocols); conditions: towards leukemia
Excerpt: as §1

[3] = test system: three leukemia cell lines; test: Activity on three leukemia cell lines (National Cancer Institute protocols)
Excerpt: as §1

[4] = read-out: TGI (total growth inhibition)
[5] = breast cancer, read-out: TGI (total growth inhibition)

**Q.** With CC(=O)O[C@H]1C(=O)[C@@]2(C)[C@H]([C@H](OC(=O)c3ccccc3)[C@]3(O)C[C@H](OC(=O)[C@H](O)[C@@H](NC(=O)c4ccccc4)c4ccccc4)C(C)=C1C3(C)C)[C@]1(OC(C)=O)CO[C@@H]1C[C@@H]2O [Taxol, reference compound] as the compound, how does the GI50 (SR) read?
**A.** 0.033 µM

**Q.** What about the GI50 (BT 549; BT-549) of the same compound?
**A.** 0.06 µM

**Q.** And the IC (total growth inhibition) (BT 549; BT-549, read-out: TGI (total growth inhibition))?
**A.** 0.7 µM

**Q.** And the GI50 (OVCAR5)?
**A.** 0.075 µM

**Q.** And the GI50 (HL60)?
**A.** 0.01 µM

**Q.** What about the GI50 (MDA-MB 435; MDA-MB-435) of the same compound?
**A.** 0.006 µM

**Q.** What about the IC (total growth inhibition) (MDA-MB 435; MDA-MB-435, read-out: TGI (total growth inhibition)) of the same compound?
**A.** 0.025 µM

**Q.** What about the GI50 (MCF7; MCF7) of the same compound?
**A.** 0.009 µM

**Q.** What about the IC (total growth inhibition) (MCF7; MCF7, read-out: TGI (total growth inhibition)) of the same compound?
**A.** 1 µM

**Q.** And the GI50 (HCT 15; HCT-15)?
**A.** 0.57 µM

**Q.** What about the GI50 (SW 620; SW-620) of the same compound?
**A.** 0.02 µM

**Q.** And the GI50 (MDA-N)?
**A.** 0.004 µM

**Q.** And the TGI (total growth inhibition concentration) (MDA-N; [4])?
**A.** 0.015 µM

**Q.** And the GI50 (HT-29)?
**A.** 0.008 µM

**Q.** What about the GI50 (MDA-MB 231; MDA-MB-231) of the same compound?
**A.** 0.1 µM

**Q.** What about the IC (total growth inhibition) (MDA-MB 231; MDA-MB-231, read-out: TGI (total growth inhibition)) of the same compound?
**A.** 0.67 µM

**Q.** And the GI50 (KM12)?
**A.** 0.016 µM

**Q.** And the GI50 (HCT 116; HCT-116)?
**A.** 0.019 µM

**Q.** And the GI50 (K-562)?
**A.** 0.015 µM

**Q.** And the GI50 (IGR-OV1)?
**A.** 0.028 µM

**Q.** And the GI50 (OVCAR4)?
**A.** 0.38 µM

**Q.** What about the GI50 (H5578T) of the same compound?
**A.** 0.012 µM

**Q.** And the TGI (total growth inhibition) (H5578T; [4])?
**A.** 0.15 µM

**Q.** What about the GI50 (Molt-4; MOLT-4) of the same compound?
**A.** 0.053 µM

**Q.** And the GI50 (RPMI-8226)?
**A.** 0.006 µM

**Q.** What about the GI50 (T47D) of the same compound?
**A.** 0.109 µM

**Q.** What about the TGI (total growth inhibition) (T47D; [4]) of the same compound?
**A.** 1 µM

**Q.** And the GI50 (OVCAR3)?
**A.** 0.022 µM

**Q.** With CC(=O)O[C@@]12CO[C@@H]1C[C@@H]1OC(C)(C)O[C@H]3C(=O)[C@@]1(C)[C@@H]2[C@H](OC(=O)c1ccccc1)[C@]1(O)[C@@H](O)[C@H](OC(=O)[C@H](O)[C@@H](NC(=O)c2ccccc2)c2ccccc2)C(C)=C3C1(C)C [Compound 23, 7,10-dimethyl acetonido-14-hydroxy taxol] as the compound, how does the GI50 (SR; leukemia, read-out: GI50) read?
**A.** 0.084 µM

**Q.** And the GI50 (BT 549; breast cancer, BT 549, read-out: GI50)?
**A.** 0.443 µM

**Q.** And the IC (total growth inhibition) (BT 549; breast cancer, BT 549, read-out: TGI (total growth inhibition))?
**A.** 11.2 µM

**Q.** What about the GI50 (OVCAR5; ovarian cancer, OVCAR5, read-out: GI50) of the same compound?
**A.** 0.77 µM

**Q.** What about the GI50 (HL60; leukemia, HL60, read-out: GI50) of the same compound?
**A.** 0.044 µM

**Q.** And the GI50 (MDA-MB 435; breast cancer, MDA-MB 435, read-out: GI50)?
**A.** 0.03 µM

**Q.** And the IC (total growth inhibition) (MDA-MB 435; breast cancer, MDA-MB 435, read-out: TGI (total growth inhibition))?
**A.** 0.12 µM

**Q.** What about the GI50 (MCF7; breast cancer, MCF7, read-out: GI50) of the same compound?
**A.** 0.07 µM

**Q.** And the IC (total growth inhibition) (MCF7; breast cancer, MCF7, read-out: TGI (total growth inhibition))?
**A.** > 30 µM

**Q.** And the IC50 [1]?
**A.** < 1 µM

**Q.** What about the GI50 (HCT 15; colon cancer, HCT 15, read-out: GI50) of the same compound?
**A.** 2.14 µM

**Q.** What about the GI50 (SW 620; colon cancer, SW 620, read-out: GI50) of the same compound?
**A.** 0.131 µM

**Q.** What about the GI50 (MDA-N; breast cancer, read-out: GI50) of the same compound?
**A.** 0.033 µM

**Q.** What about the IC (total growth inhibition) (MDA-N; [5]) of the same compound?
**A.** 0.12 µM

**Q.** And the selectivity and sensitivity [2]?
**A.** good selectivity and sensitivity

**Q.** What about the GI50 (HT-29; colon cancer, read-out: GI50) of the same compound?
**A.** 0.079 µM

**Q.** What about the GI50 (MDA-MB 231; breast cancer, MDA-MB 231, read-out: GI50) of the same compound?
**A.** 0.5 µM

**Q.** And the IC (total growth inhibition) (MDA-MB 231; breast cancer, MDA-MB 231, read-out: TGI (total growth inhibition))?
**A.** > 30 µM

**Q.** And the GI50 (KM12; colon cancer, read-out: GI50)?
**A.** 0.077 µM

**Q.** What about the GI50 (HCT 116; colon cancer, HCT 116, read-out: GI50) of the same compound?
**A.** 0.228 µM

**Q.** And the GI50 (K-562; leukemia, K-562, read-out: GI50)?
**A.** 0.247 µM

**Q.** What about the GI50 (IGR-OV1; ovarian cancer, IGR-OV1, read-out: GI50) of the same compound?
**A.** 0.066 µM

**Q.** What about the GI50 (OVCAR4; ovarian cancer, OVCAR4, read-out: GI50) of the same compound?
**A.** 1.86 µM

**Q.** And the IC50 [3]?
**A.** < 0.1 µM

**Q.** What about the GI50 (H5578T; breast cancer, H5578T, read-out: GI50) of the same compound?
**A.** 0.137 µM

**Q.** What about the IC (total growth inhibition) (H5578T; breast cancer, H5578T, read-out: TGI (total growth inhibition)) of the same compound?
**A.** 0.89 µM

**Q.** What about the GI50 (Molt-4; leukemia, Molt-4, read-out: GI50) of the same compound?
**A.** 0.267 µM

**Q.** And the GI50 (RPMI-8226; leukemia, read-out: GI50)?
**A.** 0.057 µM

**Q.** And the GI50 (T47D; breast cancer, read-out: GI50)?
**A.** 0.158 µM

**Q.** What about the IC (total growth inhibition) (T47D; [5]) of the same compound?
**A.** 17.7 µM

**Q.** What about the GI50 (OVCAR3; ovarian cancer, OVCAR3, read-out: GI50) of the same compound?
**A.** 0.131 µM

Source: patent US5763477A, “Taxane derivatives from 14-β-hydroxy-10 deacetylbaccatin III” (Dr. Reddy's Research Foundation, priority 1994, dated 1998)
